The numbers were not newly measured in publication PMC6738096 (British Journal of Cancer, 2019), which cites them from elsewhere.

For series [1] the following is noted: cited from earlier work.
A further series relates to ALK-positive NSCLC. Further details: method as in not given. Conditions: ALK pre-treated setting, post crizotinib; ref not given; cited from earlier work.

Each structure is given as a SMILES string.

Consider `COc1cc(N2CCC(N3CCN(C)CC3)CC2)ccc1Nc1ncc(Cl)c(Nc2ccccc2P(C)(C)=O)n1` [brigatinib], for which the “QTc prolongation in clinical trials” value in series [1] is reported as “QTc was not prolonged to any clinically relevant extent”. The Objective response rate in the series on ALK-positive NSCLC is reported as 45–54%.
With `Cc1cc(Nc2ncc(Cl)c(Nc3ccccc3S(=O)(=O)C(C)C)n2)c(OC(C)C)cc1C1CCNCC1` [ceritinib], in series [1] (among 919 patients), the “Patients with QTc > 500 ms” value is given as 1.3% and the “Patients with ΔQTc of > 60 ms” value was 6%. Further, the Objective response rate in the series with ALK-positive NSCLC was 55%.
For `C[C@H]1Oc2cc(cnc2N)-c2c(nn(C)c2C#N)CN(C)C(=O)c2ccc(F)cc21` [lorlatinib], in the series with ALK-positive NSCLC, the Objective response rate is reported as 48%.
